{"source": "patent US20240228797A1", "about": "“LIQUID REPELLENT SLIPPERY SURFACES AND METHODS OF PREPARATION THEREOF” (priority 2021, published 2024)", "origin": "cited, not measured here", "data": [{"smiles": "CC(C)CCCC(C)CCCC(C)CCCCC(C)CCCC(C)CCCC(C)C", "note": "(stereo not shown) [Squalane, squalane]", "values": [{"measurement": "water solubility", "value": "extremely low water solubility"}]}]}
